Experimental findings from ChEMBL document CHEMBL1146270, “Identification of potent and selective TACE inhibitors via the S1 pocket” (Bioorg Med Chem Lett, 2007) are described below.

Structures are written as SMILES. Some results are limits rather than exact numbers.

In assay [1] the target is T1, Interstitial collagenase (Homo sapiens, UniProt P03956).
T1 sequence (P03956 whole entry): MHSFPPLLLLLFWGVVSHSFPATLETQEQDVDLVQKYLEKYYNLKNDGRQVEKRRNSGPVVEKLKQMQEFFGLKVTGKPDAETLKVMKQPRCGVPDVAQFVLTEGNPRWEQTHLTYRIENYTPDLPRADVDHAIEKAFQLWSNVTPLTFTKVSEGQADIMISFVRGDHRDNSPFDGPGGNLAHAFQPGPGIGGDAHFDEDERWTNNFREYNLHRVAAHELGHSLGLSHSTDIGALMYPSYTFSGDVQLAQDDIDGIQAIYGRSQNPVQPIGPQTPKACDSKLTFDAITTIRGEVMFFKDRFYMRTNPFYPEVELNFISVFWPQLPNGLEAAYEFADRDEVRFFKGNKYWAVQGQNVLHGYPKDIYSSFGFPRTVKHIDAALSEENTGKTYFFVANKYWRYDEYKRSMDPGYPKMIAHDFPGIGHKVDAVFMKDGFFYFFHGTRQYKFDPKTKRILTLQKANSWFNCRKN
Nature of the assay: Inhibition of MMP1.

The target in assay [2] is 72 kDa type IV collagenase (Homo sapiens, UniProt P08253). Briefly: Inhibition of MMP2.
72 kDa type IV collagenase, sequence (P08253 whole entry): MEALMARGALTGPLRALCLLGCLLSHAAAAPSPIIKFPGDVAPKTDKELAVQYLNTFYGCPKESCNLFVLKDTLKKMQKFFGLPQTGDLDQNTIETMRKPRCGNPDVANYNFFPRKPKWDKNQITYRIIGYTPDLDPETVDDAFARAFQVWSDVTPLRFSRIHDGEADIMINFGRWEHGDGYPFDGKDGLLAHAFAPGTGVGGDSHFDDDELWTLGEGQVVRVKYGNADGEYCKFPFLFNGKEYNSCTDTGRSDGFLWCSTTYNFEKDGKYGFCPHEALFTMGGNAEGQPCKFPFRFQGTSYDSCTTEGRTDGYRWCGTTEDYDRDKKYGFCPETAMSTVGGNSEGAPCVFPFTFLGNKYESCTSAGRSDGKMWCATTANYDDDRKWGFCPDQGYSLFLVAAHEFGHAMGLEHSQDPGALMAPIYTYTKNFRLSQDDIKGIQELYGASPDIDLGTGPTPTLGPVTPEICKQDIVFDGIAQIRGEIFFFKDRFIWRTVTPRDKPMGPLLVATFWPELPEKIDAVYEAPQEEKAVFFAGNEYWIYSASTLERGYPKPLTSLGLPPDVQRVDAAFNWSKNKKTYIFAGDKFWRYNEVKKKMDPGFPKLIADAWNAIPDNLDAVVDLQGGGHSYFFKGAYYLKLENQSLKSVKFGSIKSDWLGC
The target of assay [3] is Stromelysin-1 (Homo sapiens, UniProt P08254). Briefly: Inhibition of MMP3.
Stromelysin-1, sequence (P08254 whole entry): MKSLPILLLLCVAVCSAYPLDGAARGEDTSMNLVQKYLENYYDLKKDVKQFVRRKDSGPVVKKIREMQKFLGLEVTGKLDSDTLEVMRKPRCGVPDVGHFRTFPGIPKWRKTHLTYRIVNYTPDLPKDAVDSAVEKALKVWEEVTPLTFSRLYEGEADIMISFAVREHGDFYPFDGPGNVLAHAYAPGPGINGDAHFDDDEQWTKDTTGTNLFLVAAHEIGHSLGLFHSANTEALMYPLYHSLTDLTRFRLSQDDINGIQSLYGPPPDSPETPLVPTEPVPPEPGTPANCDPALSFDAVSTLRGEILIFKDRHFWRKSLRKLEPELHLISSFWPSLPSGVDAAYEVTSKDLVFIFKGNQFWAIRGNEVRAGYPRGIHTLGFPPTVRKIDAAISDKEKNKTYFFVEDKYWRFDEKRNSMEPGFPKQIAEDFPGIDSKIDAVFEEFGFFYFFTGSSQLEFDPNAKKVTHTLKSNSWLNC
Assay [4] has as its target Matrix metalloproteinase-9 (Homo sapiens, UniProt P14780). Briefly: Inhibition of MMP9.
Assay [5] deals with Collagenase 3 (Homo sapiens, UniProt P45452).
Assay [6] deals with T2, Disintegrin and metalloproteinase domain-containing protein 17 (Homo sapiens, UniProt P78536). Nature of the assay: Inhibition of TACE.
T2 sequence (P78536 whole entry, the tested form may be a part): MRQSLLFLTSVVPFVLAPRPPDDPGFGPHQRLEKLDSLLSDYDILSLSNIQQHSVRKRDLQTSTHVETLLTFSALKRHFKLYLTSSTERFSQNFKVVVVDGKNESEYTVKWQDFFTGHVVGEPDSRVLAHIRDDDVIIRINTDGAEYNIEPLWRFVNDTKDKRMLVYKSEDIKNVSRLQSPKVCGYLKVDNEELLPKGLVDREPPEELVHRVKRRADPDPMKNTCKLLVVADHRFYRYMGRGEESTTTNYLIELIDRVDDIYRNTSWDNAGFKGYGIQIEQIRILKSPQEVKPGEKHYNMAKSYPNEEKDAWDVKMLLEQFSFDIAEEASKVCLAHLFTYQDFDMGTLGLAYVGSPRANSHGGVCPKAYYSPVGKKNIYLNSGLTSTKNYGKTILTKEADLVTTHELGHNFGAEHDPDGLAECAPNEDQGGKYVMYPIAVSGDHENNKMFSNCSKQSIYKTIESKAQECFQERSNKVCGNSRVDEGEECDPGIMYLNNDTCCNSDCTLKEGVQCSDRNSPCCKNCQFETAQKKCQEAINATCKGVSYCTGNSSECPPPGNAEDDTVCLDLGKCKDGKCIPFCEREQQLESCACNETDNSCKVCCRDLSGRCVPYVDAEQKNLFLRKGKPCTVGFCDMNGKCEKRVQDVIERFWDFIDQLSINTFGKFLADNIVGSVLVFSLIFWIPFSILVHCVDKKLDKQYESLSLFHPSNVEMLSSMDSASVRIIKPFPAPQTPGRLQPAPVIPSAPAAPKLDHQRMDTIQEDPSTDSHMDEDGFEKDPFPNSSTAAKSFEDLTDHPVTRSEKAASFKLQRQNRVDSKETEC
The target of assay [7] is Matrix metalloproteinase-14 (Homo sapiens, UniProt P50281). Nature of the assay: Inhibition of MMP14.
Assay [8] deals with T2, Disintegrin and metalloproteinase domain-containing protein 17.
Description: Inhibition of TACE in human whole blood assay

Matrix metalloproteinase-9, sequence (P14780 whole entry): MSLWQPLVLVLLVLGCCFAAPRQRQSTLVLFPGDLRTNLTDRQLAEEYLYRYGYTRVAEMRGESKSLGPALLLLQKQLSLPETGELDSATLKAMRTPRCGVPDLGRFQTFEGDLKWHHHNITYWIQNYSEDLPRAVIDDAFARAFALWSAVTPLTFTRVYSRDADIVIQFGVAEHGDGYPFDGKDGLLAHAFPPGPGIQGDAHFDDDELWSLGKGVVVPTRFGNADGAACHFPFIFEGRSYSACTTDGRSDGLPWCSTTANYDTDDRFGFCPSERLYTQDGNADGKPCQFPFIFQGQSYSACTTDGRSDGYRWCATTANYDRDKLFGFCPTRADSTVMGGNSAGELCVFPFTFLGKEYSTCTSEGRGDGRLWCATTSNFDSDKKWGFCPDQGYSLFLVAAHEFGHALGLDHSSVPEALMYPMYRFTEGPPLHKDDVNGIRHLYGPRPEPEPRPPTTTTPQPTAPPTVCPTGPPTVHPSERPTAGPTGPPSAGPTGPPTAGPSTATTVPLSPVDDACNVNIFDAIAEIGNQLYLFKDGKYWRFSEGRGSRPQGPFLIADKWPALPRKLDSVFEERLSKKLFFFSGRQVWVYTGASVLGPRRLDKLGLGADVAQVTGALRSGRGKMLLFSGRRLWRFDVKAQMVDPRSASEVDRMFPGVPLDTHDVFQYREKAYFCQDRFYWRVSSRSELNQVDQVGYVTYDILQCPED

For the molecule `Cc1cc(COc2ccc([C@]3(C)CCN([C@H](C)C(=O)NO)C3=O)cc2)c2ccccc2n1`, the IC50 – broadly, the midpoint of a concentration-inhibition curve – in assay [1] came to 30000 nM; in assay [2], 2050 nM; in assay [3], 141 nM; in assay [4], 10300 nM; in assay [5] it was 1420 nM.
Regarding `CC#CCOc1ccc(S(=O)(=O)CC2(C(=O)NO)CCN(S(=O)(=O)N(C)C)CC2)cc1`, the results for the IC50 in assay [6], in assay [2] and in assay [5] were 1.8 nM, 61.3 nM and 229 nM, respectively.
In the case of `CC#CCOc1ccc(S(=O)(=O)CC2(C(=O)NO)CCN(S(=O)(=O)N3CCOCC3)CC2)cc1`, the IC50 in assay [6] turned out to be 1 nM; in assay [2], 51 nM; in assay [5], 195 nM.
The corresponding values for `CC#CCOc1ccc(S(=O)(=O)CC2(C(=O)NO)CCN(S(=O)(=O)N3CCCCC3)CC2)cc1` are 1.2 nM, 51 nM and 144 nM.
Consider `CC#CCOc1ccc(S(=O)(=O)CC2(C(=O)NO)CCN(S(=O)(=O)N3CCN(C(C)=O)CC3)CC2)cc1`, for which the figures for the IC50 in assay [6], in assay [2] and in assay [5] were 1.5 nM, 20 nM and 104 nM, respectively.
Regarding `CC#CCOc1ccc(S(=O)(=O)CC2(C(=O)NO)CCN(S(=O)(=O)N3CCC[C@H]3COC)CC2)cc1`, the IC50 in assay [6] was 1.5 nM; in assay [2] it was 58 nM; in assay [5], 190 nM.
The like results for `CC#CCOc1ccc(S(=O)(=O)CC2(C(=O)NO)CCN(S(=O)(=O)N3CCC[C@@H]3CO)CC2)cc1` were, in that order, 1.4 nM, 172 nM and 354 nM.
For `CC#CCOc1ccc(S(=O)(=O)CC2(C(=O)NO)CCN(Cc3c(Cl)cncc3Cl)CC2)cc1`, the IC50 in assay [1] stood at 2680 nM; in assay [2] it was 555 nM; in assay [4], 920 nM; in assay [7], 14800 nM; in assay [5] it was 259 nM.
As for `CC#CCOc1ccc(S(=O)(=O)CC2(C(=O)NO)CCN(S(=O)(=O)C(C)(C)C)CC2)cc1`, the IC50 in assay [6] was less than 1 nM; in assay [2], 73 nM; in assay [5], 238 nM.
As for `CC#CCOc1ccc(S(=O)(=O)CC2(C(=O)NO)CCN(S(=O)(=O)CC3CCCCC3)CC2)cc1`, the IC50 in assay [6] was less than 1 nM; in assay [2] it was 11 nM; in assay [5], 72 nM.
As for `CC#CCOc1ccc(S(=O)(=O)CC2(C(=O)NO)CCN(S(=O)(=O)CCN3CCOCC3)CC2)cc1`, the IC50 in assay [6] was 2.2 nM; in assay [2], 37 nM; in assay [5] it was 43 nM.
Turning to `CC#CCOc1ccc(S(=O)(=O)CC2(C(=O)NO)CCN(S(=O)(=O)C(C)CN3CCOCC3)CC2)cc1` (stereo unspecified), the IC50 in assay [6] amounted to 1.4 nM; in assay [2], 37 nM; in assay [5], 130 nM.
Take `CC#CCOc1ccc(S(=O)(=O)CC2(C(=O)NO)CCN(S(=O)(=O)C3CCCC3)CC2)cc1`: the IC50 stood at 1.3 nM in assay [6], 54 nM in assay [2] and 155 nM in assay [5].
The like results for `CC#CCOc1ccc(S(=O)(=O)CC2(C(=O)NO)CCN(S(=O)(=O)C3CCCCC3)CC2)cc1` were, in that order, 2.8 nM, 4 nM and 24.4 nM.
`CC#CCOc1ccc(S(=O)(=O)CC2(C(=O)NO)CCN(c3ccccn3)CC2)cc1`: the values for the IC50 in assay [6], in assay [2] and in assay [5] were 1.33 nM, 62.6 nM and 205 nM, respectively.
The corresponding values for `CC#CCOc1ccc(S(=O)(=O)CC2(C(=O)NO)CCN(c3ccncc3)CC2)cc1` are 5.6 nM, 2060 nM and 2040 nM.
As for `CC#CCOc1ccc(S(=O)(=O)CC2(C(=O)NO)CCN(c3nc4ccccc4n3C)CC2)cc1`, the IC50 was less than 1 nM in assay [6], 176 nM in assay [2] and 166 nM in assay [5].
Take `CC#CCOc1ccc(S(=O)(=O)CC2(C(=O)NO)CCN(S(=O)(=O)c3c(C)noc3C)CC2)cc1`: the IC50 in assay [2] amounted to 664 nM; in assay [7] it was 24000 nM; in assay [5] it was 2280 nM.
As for `CC#CCOc1ccc(S(=O)(=O)CC2(C(=O)NO)CCN(S(=O)(=O)c3cn(C)c(C)n3)CC2)cc1`, the IC50 in assay [6] amounted to 3 nM; in assay [2], 19 nM; in assay [5], 147 nM.
`CC#CCOc1ccc(S(=O)(=O)CC2(C(=O)NO)CCN(S(=O)(=O)c3ccc(Cl)s3)CC2)cc1`: the 50% inhibitory concentration (IC50) worked out at 7 nM in assay [6] and 33 nM in assay [2].
Regarding `CC#CCOc1ccc(S(=O)(=O)CC2(C(=O)NO)CCN(S(=O)(=O)c3cc(Cl)sc3Cl)CC2)cc1`, the results for the IC50 in assay [6], in assay [2] and in assay [5] were less than 1 nM, 22 nM and 23 nM, respectively.
For the molecule `CC#CCOc1ccc(S(=O)(=O)CC2(C(=O)NO)CCN(C(=O)c3ccncc3)CC2)cc1`, the IC50 in assay [6] came to 2.6 nM; in assay [7], 583 nM; in assay [5], 21.5 nM.
With `CC#CCOc1ccc(S(=O)(=O)N2CCSC(C)(C)C2C(=O)NO)cc1` (stereo unspecified), the IC50 in assay [6] worked out at 9 nM; in assay [1], 201 nM.
On to `CC#CCOc1ccc(S(=O)(=O)CC2(C(=O)NO)CCN(S(=O)(=O)c3nc(C)sc3C)CC2)cc1`, for which the figures for the IC50 in assay [6], in assay [2] and in assay [5] were less than 1 nM, 32 nM and 38 nM, respectively.
Take `CC#CCOc1ccc(S(=O)(=O)CC2(C(=O)NO)CCN(S(=O)(=O)N3CCCC3)CC2)cc1`: the IC50 was 1 nM in assay [6], 31 nM in assay [2] and 117 nM in assay [5].
As for `CC#CCOc1ccc(S(=O)(=O)CC2(C(=O)NO)CCN(C(=O)c3c(Cl)cncc3Cl)CC2)cc1`, the IC50 in assay [6] came to 1.7 nM; in assay [2], 183 nM; in assay [5] it was 449 nM; in assay [8] it was 1300 nM.
With `CC#CCOc1ccc(S(=O)(=O)CC2(C(=O)NO)CCN(S(=O)(=O)Cc3ccncc3)CC2)cc1`, the IC50 in assay [6] was 2 nM; in assay [2], 82 nM; in assay [5] it was 295 nM.
For the molecule `CC#CCOc1ccc(S(=O)(=O)CC2(C(=O)NO)CCN(S(=O)(=O)C(CC)CC)CC2)cc1`, the IC50 was found to be 1.2 nM in assay [6], 58 nM in assay [2] and 136 nM in assay [5].
Regarding `CC#CCOc1ccc(S(=O)(=O)CC2(C(=O)NO)CCN(S(=O)(=O)C3CC3)CC2)cc1`, the IC50 in assay [6] came to 1.6 nM; in assay [2], 161 nM; in assay [5] it was 1160 nM.
As for `CC#CCOc1ccc(S(=O)(=O)CC2(C(=O)NO)CCN(c3nc4ccccc4o3)CC2)cc1`, the IC50 in assay [6] worked out at 1.1 nM; in assay [2], 40 nM; in assay [5], 56 nM.
On to `CC#CCOc1ccc(S(=O)(=O)CC2(C(=O)NO)CCN(S(=O)(=O)c3c(C)nn(C)c3C)CC2)cc1`, for which the values for the IC50 in assay [6], in assay [2] and in assay [5] were less than 1 nM, 99.5 nM and 385 nM, respectively.
In the case of `Cc1cc(COc2ccc(S(=O)(=O)CC(CC3CCN(C(C)(C)C)CC3)N(O)C=O)cc2)c2ccccc2n1` (stereo unspecified), the IC50 turned out to be 12 nM in assay [6]; 5000 nM in assay [2]; 1500 nM in assay [3]; 90000 nM in assay [4]; 4000 nM in assay [5].
